{"source": "patent US7811778B2", "about": "“Methods of screening for gastrointestinal cancer” (Vanderbilt University, priority 2006, dated 2010)", "tested_on": "emerging SPEM cells", "assay": "Quantitative PCR of transcripts in microdissected cells during emergence of SPEM", "type": "in vivo, gastrin-deficient mice", "method": "Total RNA isolated from laser-capture microdissected cell collections from the stomachs of normal and DMP-777 1-day-treated and DMP-777 3-day—treated gastrin-deficient mice was analyzed by quantitative PCR assays. Reverse transcription from each total RNA sample was performed using random primers and Quantiscript Reverse transcriptase (Qiagen. Valencia, Calif.), for 30 minutes at 42° C. Quantitative real-time PCR was performed with a 3-step method using the Bio-Rad iCycler iQ real-time PCR detection system (Bio-Rad Laboratories, Hercules, Calif.). Each reaction was carried out in a 50 μL mixture consisting of QuantiTect SYBR Green PCO Master Mix (Qiagen), and 1 μL of template cDNA. The PCR conditions for quantitative real-time PCR were; 95° C. for 10 minutes 45 cycles of 94° C. for 15 seconds, 60° C. for 30 seconds, and 72° C. for 30 seconds. Quantitation of cDNA template in each sample was determined using the comparative threshold cycle (CT) method using GAPDH as a control, as described previously (Nomura S, Baxter S, Yamaguchi T, Leys C, Vartapetian A B, Fox J G, Lee J R, Wang T C, Goldenring J R. Relationship of spasmolytic polypeptide expressing metaplasia (SPEM) to pre-neoplasia in H. felis-infected mice. Gastroenterology 2004; 127:582-594). Statistical comparisons of the mean ΔΔCT between groups were determined using the Mann-Whitney U Test\nHowever, by quantitative PCR assays, TFF2 levels were elevated greater than 7-fold in emerging SPEM from DMP-777 treated animals (FIG. 5).", "key": {"[1]": {"conditions": "microdissected cells, DMP-777 1 or 3 days vs untreated chief cells"}}}
{"smiles": "CCC[C@@H](NC(=O)N1C(=O)C(CC)(CC)[C@@H]1Oc1ccc(C(=O)N2CCN(C)CC2)cc1)c1ccc2c(c1)OCO2", "note": "[DMP-777]", "values": [{"measurement": "TFF2 levels by quantitative PCR", "setting": "emerging SPEM from DMP-777 treated animals vs untreated chief cells", "result": "greater than 7 fold"}, {"measurement": "G1/S associated transcripts MCM3, MCM5, MCM7 and ATF3 by quantitative PCR", "setting": "[1]", "result": "up-regulation of G1/associated transcripts was confirmed"}, {"measurement": "ST3Gal6 transcript by quantitative PCR", "setting": "[1]", "result": "down-regulation ST3Gal6 was confirmed"}, {"measurement": "transcripts for putative soluble mediators HE4 and IL1RN by quantitative PCR", "setting": "[1]", "result": "up-regulation of transcripts for putative soluble mediators was also confirmed"}]}
